Calls of active or inactive are those of the source.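 How the source made its calls: active means mean IC50 at or below a set limit; inactive means the rest.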

The experiment has as its system 697 B-cell NF-kB luciferase reporter, PMA/ionomycin, 16 h. The experiment in a line: NF-kB luciferase reporter inhibition in 697 B cells – cell-based, luminescence, set 3, SAR follow-up (AID 504641).
For `CC(C)(C)c1ccc(-c2noc(CCC(=O)Nc3cccc([N+](=O)[O-])c3)n2)cc1`, the half-inhibitory concentration (IC50) was under 160 nM.

`CCOc1ccc(-c2noc(CCC(=O)NC)n2)cc1`: the IC50 is > 80000 nM (inactive). With `CCOc1ccc(-c2nc(CSCC(=O)NCc3cccnc3)c(C)o2)cc1` the figure was 2380 nM.

For `CCOc1ccc(-c2nc(CSCC(=O)NC(C)CC)c(C)o2)cc1` (stereo not drawn), the IC50 was 46900 nM (inactive). For `CCOc1ccc(-c2nc(CSCC(=O)NCCc3ccccc3)c(C)o2)cc1` the value was 3560 nM; for `CC(C)NC(=O)CCc1nc(-c2ccc(C(C)(C)C)cc2)no1`, 280 nM. For `CC(C)(C)c1ccc(-c2noc(CCC(=O)NCc3ccco3)n2)cc1` the value was 200 nM; for `CNC(=O)CCc1nc(-c2ccc(F)cc2)no1`, > 80000 nM (inactive). For `CCOc1ccc(-c2nc(CSCC(=O)NCc3cccs3)c(C)o2)cc1` the value was 650 nM. On to `CC(C)CNC(=O)CCc1nc(-c2ccc(C(C)(C)C)cc2)no1`, for which the IC50 was 240 nM.

With `COc1ccccc1NC(=O)CCc1nc(-c2ccc(C(C)(C)C)cc2)no1`, the IC50 was under 160 nM. In the case of `CCCNC(=O)CCc1nc(-c2ccc(C(C)(C)C)cc2)no1`, the concentration for half-maximal inhibition (IC50) was 190 nM. `CCOc1ccc(-c2nc(CSCC(=O)NCCc3ccc(Cl)cc3)c(C)o2)cc1`: the IC50 is > 80000 nM (inactive).

On to `CC(C)(C)c1ccc(-c2noc(CCC(=O)NCC3CCCO3)n2)cc1` (stereo not drawn), for which the IC50 is 590 nM. With `CCOc1ccc(-c2nc(CSCC(=O)N3CCC(C)CC3)c(C)o2)cc1` the figure was 70400 nM (inactive); with `CNC(=O)CCc1nc(-c2ccc(Cl)cc2)no1`, > 80000 nM (inactive). With `CCOc1ccc(-c2nc(CSCC(=O)NCC3CCCO3)c(C)o2)cc1` (stereo not drawn) the figure was 7840 nM; with `CCCNC(=O)CSCc1nc(-c2ccc(OCC)cc2)oc1C`, 1510 nM; with `CCOc1ccc(-c2nc(CSCC(=O)NCCC3=CCCCC3)c(C)o2)cc1`, 36500 nM (inactive).

For `CCOc1ccc(-c2nc(CSCC(=O)NC3CCCC3)c(C)o2)cc1`, the IC50 is 25700 nM (inactive).

In the case of `CCOc1ccc(-c2nc(CSCC(=O)N3CCCC3)c(C)o2)cc1`, the IC50 is > 80000 nM (inactive). For `CC(C)(C)c1ccc(-c2noc(CCC(=O)NC3CCCCC3)n2)cc1` the value was 400 nM.

Take `CC(C)(C)c1ccc(-c2noc(CCC(=O)Nc3ccccc3)n2)cc1`: the IC50 was under 160 nM. With `CC(C)(C)c1ccc(-c2noc(CCC(=O)N3CCOCC3)n2)cc1` the figure was 24300 nM (inactive); with `CNC(=O)CCc1nc(-c2ccc(C)cc2)no1`, > 80000 nM (inactive); with `CC(C)(C)c1ccc(-c2noc(CCC(=O)Nc3cccnc3)n2)cc1`, 160 nM.

As to `CCOc1ccc(-c2nc(CSCC(=O)NCc3ccc(C)cc3)c(C)o2)cc1`, the IC50 is 2770 nM. For `COc1cccc(NC(=O)CCc2nc(-c3ccc(C(C)(C)C)cc3)no2)c1` the value was under 160 nM.

Turning to `CCOCCCNC(=O)CSCc1nc(-c2ccc(OCC)cc2)oc1C`, the IC50 is 10300 nM. For `CCOc1ccc(-c2nc(CSCC(=O)NC(C)C)c(C)o2)cc1` the value was 1240 nM. With `CCOc1ccccc1NC(=O)CCc1nc(-c2ccc(C(C)(C)C)cc2)no1` the figure was under 160 nM; with `CCOc1ccc(-c2nc(CSCC(=O)NCCN3CCCC3)c(C)o2)cc1`, 12100 nM; with `CC(C)(C)c1ccc(-c2noc(CCC(=O)N3CCCCC3)n2)cc1`, 30300 nM (inactive).

As for `CNC(=O)CCc1nc(-c2ccc(OC)cc2)no1`, the IC50 was > 80000 nM (inactive).

As to `CCOc1ccc(-c2nc(CSCC(=O)NCc3ccccc3)c(C)o2)cc1`, the concentration for half-maximal inhibition (IC50) is 6750 nM. With `CCOc1ccc(-c2nc(CSCC(=O)NCCc3ccc(C)cc3)c(C)o2)cc1` the figure was 18100 nM. As for `CCCNC(=O)CSCc1nc(-c2ccc(SC)cc2)oc1C`, the IC50 is > 80000 nM (inactive). For the compound `CCCCNC(=O)CSCc1nc(-c2ccc(OCC)cc2)oc1C`, the IC50 was 8640 nM. For `C=CCNC(=O)CCc1nc(-c2ccc(C(C)(C)C)cc2)no1` the value was 190 nM. With `CCOc1ccc(-c2nc(CSCC(=O)NC3CCCC(C)C3C)c(C)o2)cc1` (stereo not drawn), the IC50 was > 80000 nM (inactive). `CSc1ccc(-c2nc(CSCC(=O)NC3CC3)c(C)o2)cc1`: the IC50 is 1360 nM. With `CC(C)(C)c1ccc(-c2noc(CCC(=O)NC3CCCC3)n2)cc1` the figure was 360 nM; with `CCOc1ccc(-c2nc(CSCC(=O)NCCOC)c(C)o2)cc1`, 310 nM.

The values above are taken from PubChem BioAssay AID504641 (Sanford-Burnham Center for Chemical Genomics, 2011).
